The nature of data set [1]: Titration (66% DMF). Format: physicochemical. From the text: Titration (66% DMF): pK=7.4, Apparent Mol. Wt.=463 (457 Calculated) Mass Spectral Analysis (FAB) m/z: 458 [(M+1)^+]

Compound `NC(=O)C(O)c1ccc(Oc2cccc(-c3ccccc3)c2)cc1OCCCCC(=O)[O-].[Na+]` (racemic) [Example 7, Sodium(RS)-2-(4-carboxybutoxy)-4-(3-phenylphenoxy)phenyl-2-hydroxyacetamide] gave a pK in data set [1] of 7.4.
By melting point is commonly meant the temperature, or range, at which the solid turns liquid. `NC(=O)Cc1ccc(Oc2ccc(F)cc2)cc1` [Example 1, 4-(4-fluorophenoxy)phenylacetamide] registered a melting point of 170 to 171 °C.
Still for that read-out and setting: next, `NC(=O)Cc1ccc(Oc2ccccc2)cc1` [Example 2, 4-phenoxyphenylacetamide]: 161 to 163 °C.
On the same count and under the same terms, with `NC(=O)Cc1cccc(Oc2ccccc2)c1` [Example 3, 3-phenoxyphenylacetamide] the figure was 115 to 117 °C.

For the origin of these results see patent US6353128B1, “Phenyl acetamides as sPLA2 inhibitors” (Eli Lilly and Company, priority 1996, dated 2002).
